Residues, ends and D or L forms follow the SMILES beside them. *: point of attachment. AFC = O=c1cc(C(F)(F)F)c2ccc(N*)cc2o1; MeOSuc = COC(=O)CCC(=O)*; Cbz = O=C(OCc1ccccc1)*
How the values were obtained:
[1] = system: purified Taenia solium cysteine protease; assay: Substrate cleavage screen of AFC-linked synthetic substrates (Step II), purified protease; assay type: biochemical; conditions: 1 ug purified protease, 1 ug substrate, Citrate pH 4.9 with 0.01 M cysteine, 18 h, 37 °C
Description: In this step, the most efficacious substrate for detection of the cysteine protease (high Kcat substrate) was determined in vitro along with those substrates which were not well cleaved (low kcat substrates). From this point forth, the following conditions refer to all assays: "assay buffer" refers to 0.4 M Citrate, pH 4.9 (the pH optima of the protease). Incubation time was 18 hours at 37°C. These conditions were determined by our preliminary data to be best for kinetic evaluation of the protease. […] The experiments were conducted in […] Borosilicate mini-culture tubes (Fisher Scientific), and a fluorometer (Turner) was employed for detection of AFC cleavage.
Approximately 1 ug (or a proteolytically detectable amount) of the purified target cysteine protease was incubated individually, with 1 ug of each of the available substrates in 500 uL of assay buffer. During this setup, the substrate was pre-incubated in the assay buffer for a short period of time (20 minutes) in order to reach an equilibrated status before the addition of the protease. Cleavage assessments were based upon the property of the protease to cleave synthetic peptide substrates linked at the C-terminus to 7-Amino-4-Trifluoromethyl Coumarin (AFC) as previously described. AFC linked tripeptides, dipeptides, and monopeptides, (with a variety of permutations at P3-P1) were available from Enzyme Systems Products (Livermore, CA), and were used as the source of the subset. Following incubation of enzyme preparations overnight (18 h, 37 °C) with peptide in assay buffer (Citrate, pH 4.9, supplemented with 0.01 M cysteine), free AFC concentrations were measured fluorometrically (excitation 405 nm, emission 505 nm). The proteolytic cleavage released the AFC group, which was measurable as a free molecule by a standard fluorometer and converted into molar quantities, based upon a previously established standard curve. The simplicity of AFC detection by the fluorometer was a key factor which quickened and simplified the procedures.
In the assay, 1 ug of the purified Taenia cysteine protease was added to a saturating amount of Z-Phe-Arg-AFC (4X10^-5 M) in assay buffer. The experiment was conducted in triplicate and repeated at least 5 times until we were certain that variability in AFC cleavage was not statistically significant.
Vmax was calculated for the cleavage of substrates by the purified target protease and Vmax was calculated for substrates cleaved by the crude mix protease using conventional kinetic modeling calculations already described in the art.

[2] = system: purified Taenia solium cysteine protease; assay: Competitor assay of low Vmax substrates (vehicles) against high Vmax substrate cocktails (Step III), purified protease; assay type: biochemical; conditions: purified protease; for inhibition in the presence of the 1.4% cocktail: 1.4% cocktail = Z-FR-AFC 1X10^-6M; for inhibition with the final cocktail (7.4%): 7.4% cocktail = Z-FR-AFC + Z-FAR-AFC + Z-AAK-AFC + AP-AFC + Z-VLR-AFC, 1X10^-6 M each, vehicle 8X10^-6 M
Description: (We employed "Vmax" here although Kcat could also be used). Due to the lower number of substrates, a percentage was not chosen for the "BOTTOM %" " substrates. Alternately, all substrates which were not cleaved as determined by a value of 10 uM/hr or less, were chosen to be tested in this step for competitive ability. From this point forth, the term "vehicle" will represent low Vmax substrates that were capable of inhibiting cleavage of the percent cocktails. In this instance, we tested for "vehicles" which inhibited cleavage of the TOP 1.4% cocktail (they were delivered into the active site). Based upon our results from Step II, the top 1.4% cocktail was composed of Z-Phe-Arg-AFC, the highest cleaved substrate.
(§1) The experiment began with a competitor test between the noncleaved low Vmax substrates and the highest Vmax substrate, Z-Phe-Arg-AFC. Concentrations were varied between the low Vmax substrate and Z-Phe-Arg-AFC, as described above under "refinement of assay" until a relative inhibition profile was obtained.
The mixture was allowed to equilibrate for a period of 30 minutes. Finally, active purified enzyme was added to the tubes at a concentration which was always 50 times less than the concentration of the high and low Vmax substrates, in order to insure saturation conditions. This concentration varied from purification to purification and the amount added depended upon the yield and specific activity of the purified protease.
Positive controls were set up similarly as described for test controls, except that solvent was added in substitution for the low Vmax substrate (in a volume equal to the low Vmax volume addition). All of the substrates could be dissolved in dimethylsulfoxide (DMSO), and therefore, this was the solvent of choice. Negative controls were set up by adding the low Vmax and the high Vmax substrate in a tube without the protease. All potential non-proteolytic induced liberation of AFC was therefore controlled for in this tube (a feature which also insured stability of the AFC substrates, since these substrates will freely liberate AFC when unstable). A tube set will be established for this negative control.
All controls were set up in triplicate, and experiments repeated a minimum of five times. The assays were incubated at 37°C, for 18 hours overnight.
(§2) Percent inhibition was calculated as: %Inhibition =; ((AFC positive for"Y"-AFC negative for"Y")-(AFC test-AFC negative for"Y")X100)/(AFC positive for "Y"-AFC negative for "Y") [formula]
A 2.9% cocktail of the high Vmax substrates was made. This was composed of Z-FR-AFC and the second most cleaved substrate, Z-FAR-AFC. The vehicles promoted from the initial screenings above were again tested for competitive inhibition ability with the new cocktails. Their concentrations were set identically to those which were "fixed" in the previous protocols. In other words, 8X10^-6M of the vehicle was added to the culture tube with 1X10^-6 M of Z-FR-AFC and 1X10^-6 M of Z-FAR-AFC. Active protease was added last at a concentration that was 50 times less than the concentration of the high Vmax substrate (to ensure saturating conditions).
In similar experimental fashion, a 4.4%, 5.9%, and 7.4% cocktail were tested with each of the promising vehicles. Each percentage point represented an increase by one substrate. Each of the individual components in the cocktail were added at 1X10^-6 M each, to 8X10^-6 M of the vehicle. The composition of the cocktails was as follows: 4.4% cocktail: Z-FR-AFC, Z-FAR-AFC, and Z-AAK-AFC (third highest cleaved substrate); 5.9% cocktail: Z-FR-AFC, Z-FAR-AFC, Z-AAK-AFC, and AP-AFC (fourth highest cleaved substrate); 7.4% cocktail: […], Z-FAR-AFC, Z-AAK-AFC, AP-AFC, and Z-VLR-AFC. We stopped at this number of substrates in the cocktail, since confidence was obtained that inhibitory potential of vehicles could be "diluted out."
Finally, a manageable set of candidate vehicles was determined. […]

[3] = system: purified Taenia solium cysteine protease; assay: Inhibition assay of protease inactivators against the high Vmax cocktail, EC100 and Ki ranking (Step VII B); assay type: biochemical
Excerpt: Once the protease inactivators were synthesized in the organic laboratory, they were to be tested for the lowest efficacious concentrations at which they induced 100% inhibition of the target protease (EC100). The top percent cocktail that was employed in the final vehicle selection step of Step III was employed as the source of competition for the inhibitors. In this case, this was the […] which was comprised of Z-FR-AFC, Z-FAR-AFC, Z-AP-AFC, Z-AAK-AFC, and Z-VLR-AFC. The final result would be a ranking of transition state candidate protease inactivators with a high ranking directly correlating to a low EC100 value. The following steps describe the assay:
Step A: Initial Screening. To set up the test control, each protease inactivator was first incubated with the […] (which provided the final differentiation of vehicles in Step III). To begin with, the protease inactivator was incubated at a concentration of 3 X 10^-9M in 500 ul of assay buffer ([…], pH 4.9 supplemented with 10mM L-cysteine). This concentration was determined, after a series of inhibitor dilutions identified, to be the best inhibitor concentration at which a differentiation in inhibitor potential could be noted. Next, a concentration equal to 4 X 10^-5M for each of the individual cocktail components, was added to the mix. The components were allowed to equilibrate for a period of 30 minutes. Finally, active purified enzyme was added to the tubes at a concentration which was always at least 50 times less than the concentration of the lowest concentration in the mix (to provide saturating conditions.) This concentration varied from purification to purification and the amount added depended upon the yield and specific activity of the purified protease.
Positive controls were set up similarly as described for test controls, except that solvent was added in substitution for the protease inactivator (in a volume equal to the […] volume addition). All of the protease inactivators could be dissolved in dimethylsulfoxide (DMSO), and therefore, this was the solvent of choice. Negative controls were set up by adding the protease inactivator and the cocktail substrates in a tube, without the protease. All potential non-proteolytic induced liberation of AFC was therefore controlled for in this tube (a feature which also insured stability of the AFC substrates, since these substrates will freely liberate AFC when unstable).
All controls were set up in triplicate, and experiments repeated a minimum of five times. The assays were incubated at 37°C, overnight. Percent inhibition was calculated as: % Inhibition = ((AFC positive for ʺSIʺ-AFC negative for ʺSIʺ)-(AFC test-AFC negative for ʺSIʺ))/(AFC positive for ʺSIʺ-AFC negative for ʺSIʺ) × 100 [formula]
Because of this, a dilution study was required in order to determine a viable ranking. Thus, the concentration of each of the protease inactivators was lowered with a dose response setup until the most efficacious concentration for 100% inhibition (EC100) could be determined. […] The final result of the assay was a ranked candidate list of protease inactivators. A lower EC100 was attributable to a higher ranking and vice-versa.
In order to determine Ki, all of the high Vmax cocktail substrates were employed for Ki determination (since Ki of the inhibitor for the enzyme is the same regardless of the substrate). To insure the highest accuracy, Ki was to be determined upon a minimum of at least three of the high Kcat substrates. Nonlinear fitting and the Dixon plot were both employed to determine Ki of the top ranked protease inactivators. A further plot was constructed using either Eadie Hofstee as well as Hanes to determine the mode of inhibition. These methods were used in order to determine the type of inhibition.

Taenia solium crude mix = assay: Competitor assay of vehicles against high Vmax substrate cocktails (Step III), crude mix; assay type: biochemical
Description: Step III for a crude mix proceeds it would for a purified protease, except that Vm is used instead of kcat.
as §1, §2
One of the most intriguing findings in this experiment was that a highly similar inhibition pattern for the competitor assay was noted when the crude mix was employed as the source of the target protease. Although there were some variations in the effects of inhibitor dilution, the most highly ranked vehicles remained inhibitory consistently in comparison to the profile with the target protease. The relative profile and composition of the top tiers of vehicles was identical. Z-LLL-AFC, Z-LLY-AFC, Mu-LY-AFC, Boc-VPR-AFC, Z-SY-AFC, Z-RR-AFC, Z-FLF-AFC, Z-LGR-AFC consistently presented as the top eight vehicles (Fig. 5b), respectively, based upon their V values (Table 2). […] It was notable that the three vehicles had very similar V values. […] As was mentioned, this vehicle along with Z-LLL-AFC and Z-LLY-AFC, were consistently the most inhibitory vehicles. The V values of the most inhibitory vehicle series are shown below in Table 2. Again, a clear break between the first and second tier vehicles could be noted with the V value. Table 2. Vehicles and V value rankings.

Taenia crassiceps cysts = assay: Short-term prophylactic protection of BALB/c mice from cysticercosis infection; assay type: in vivo; conditions: pre-injected two days, 10 T. crassiceps cysts/mouse, dosed daily for four weeks, cysts counted after one month, versus untreated controls

N[C@@H](CCC(=O)O)C(=O)N[C@@H](Cc1ccc(O)cc1)C(=O)Nc1ccc2c(C(F)(F)F)cc(=O)oc2c1 [EY-AFC, reference compound] (H-Glu-Tyr-{AFC})
cleavage of AFC-linked substrate (Vmax) [1]: not cleaved

COC(=O)CCC(=O)N[C@@H](Cc1ccccc1)C(=O)N[C@@H](CC(C)C)C(=O)N[C@@H](Cc1ccccc1)C(=O)Nc1ccc2c(C(F)(F)F)cc(=O)oc2c1 [MeoSuc-FLF-AFC, reference compound] (MeOSuc-Phe-Leu-Phe-{AFC})
cleavage of AFC-linked substrate (Vmax) [1]: not cleaved

CC(C)C[C@H](NC(=O)OCc1ccccc1)C(=O)NCC(=O)N[C@@H](CCCNC(=N)N)C(=O)Nc1ccc2c(C(F)(F)F)cc(=O)oc2c1 [Z-LGR-AFC, Z-Leu-Gly-Arg-AFC] (Cbz-Leu-Gly-Arg-{AFC})
cleavage of AFC-linked substrate (Vmax) [1]: noncleavable | inhibition in the presence of the 1.4% cocktail ([2]; vehicle 8X10^-6M): greater than 20% | inhibition with the final cocktail (7.4%) [2]: less than 20%

CC(C)C[C@@H](/C=C/S(C)(=O)=O)NC(=O)[C@H](CC(C)C)NC(=O)[C@H](CC(C)C)NC(=O)OCc1ccccc1 [Z-LLL-VS, Z-Leu-Leu-Leu-vinylsulfone]
ranking of protease inactivators by EC100 ([3]; dilution study, nanomolar levels): top inhibitors

CC(C)C[C@H](NC(=O)OCc1ccccc1)C(=O)N[C@@H](CCCNC(=N)N)C(=O)N[C@@H](CCCNC(=N)N)C(=O)Nc1ccc2c(C(F)(F)F)cc(=O)oc2c1 [Z-LRR-AFC] (Cbz-Leu-Arg-Arg-{AFC})
inhibition in the presence of the 1.4% cocktail ([2]; vehicle 8X10^-6M): greater than 20%

N=C(N)NCCC[C@H](NC(=O)OCc1ccccc1)C(=O)N[C@@H](CCCNC(=N)N)C(=O)Nc1ccc2c(C(F)(F)F)cc(=O)oc2c1 [Z-RR-AFC] (Cbz-Arg-Arg-{AFC})
Tier (Taenia solium crude mix): 2 (The second tier was composed of those vehicles, which produced inhibition between 20-50% inhibition when in the presence of the 1.4% cocktail) | V Value (Taenia solium crude mix; V = P * M): 0.09 | inhibition with the final cocktail (7.4%) [2]: less than 20% | V Value ([2]; V = P * M, P = inhibition with first (1.4%) cocktail, M = inhibition with last (7.4%) cocktail, vehicle 8X10^-6M, each cocktail substrate 1X10^-6 M): 0.09

Leu-Phe-Ketoamide-Pyridyl [K-Pyr, reference compound]
% Prophylactic protection of BALB/c mice (Taenia crassiceps cysts): 40% | % Inhibition of T. solium CP in vitro ([3]; in vitro, concentration not stated in Table 4): 80%

Reference: patent EP1276895B1, “METHOD FOR THE IDENTIFICATION OF ACTIVE SITE PROTEASE INACTIVATORS” (THE UNIVERSITY OF GEORGIA RESEARCH FOUNDATION, INC., priority 2000, dated 2001)
